This is an account of results in patent US12479843B2, “Spiro ring-containing quinazoline compounds” (WIGEN BIOMEDICINE TECHNOLOGY (SHANGHAI) CO., LTD., priority 2019, dated 2025).

In series [1] the test system is Human pancreatic cancer Mia PaCa-2 cells. Put plainly: Antitumor activity on graft tumors of human pancreatic cancer Mia PaCa-2 in nude mice. Format: in vivo. The note with it: Mia PaCa-2 graft tumors in nude mice, 10 mg/kg intragastric, qd*21. The procedure:
Human pancreatic cancer Mia PaCa-2 cells were cultured conventionally in 1640 medium containing 10% fetal bovine serum in a 37° C./5% CO2 incubator. After passage, the cells were collected when they reached the desired amount. 1×10^7 Mia PaCa-2 cells were injected into the left dorsal side of each nude mouse, and the animals were randomly grouped for administration after tumors grew to 150 mm3. The groups are as follows: 1) a solvent control group of 8 mice; and 2) compound 1 group, compound 2 group, compound 5 group, compound 31 group, compound 131 group, compound 142 group, compound 171 group, compound B group and compound C group, with 8 mice per group. Mice in the solvent control group were subjected to intragastric administration of 0.5% CMC-Na once daily; mice in compound 1 group, compound 2 group, compound 5 group, compound 31 group, compound 131 group, compound 142 group, compound 171 group, compound B group and compound C group were subjected to intragastric administration of a suspension of a compound in 0.5% CMC-Na once daily. On Tuesday and Thursday each week, tumor volumes and body weight of the mice were measured, and the nude mice were sacrificed on day 21 of administration.

A further series has as its system pERK level in H358 cells. The series can be described thus: pERK and ERK protein content assay in H358 cells (ELISA). Format: cell-based. The note with it: Homo sapiens, NCI-H358, compound 1 μM, 24 h, pERK/ERK ratio compared with DMSO group, read-out: Inhibition rate (%) of pERK level. The gist of the method: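 H358 cells grown one day, then treated 24 h with compound at 1 μM. pERK and ERK in lysates measured by ELISA; pERK/ERK ratio expressed as percent inhibition versus DMSO.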

In a further series the test system is H358 cells. The series can be described thus: Antiproliferative activity against H358 cells (Cell Titer Glow, ultra-low attachment plate). Conditions: Homo sapiens, NCI-H358, 72 h, three days after addition of compound. Format: cell-based. The procedure:
2500 H358 cells were seeded in a 96-well ultra-low attachment plate (corning, 7007). After one day of growth, a serially diluted compound (a maximum concentration of 5 μM, 5-fold dilution, a total of five doses) was added. Three days after the addition of the compound, Cell Titer Glow (Promega, G9681) was added to evaluate pellet growth, and the IC50 value was calculated.

Series [2] relates to phosphorylated ERK (pERK) level in H358 cells. The series can be described thus: pERK level assay by western blot in H358 cells. Format: cell-based. The note with it: overnight incubation, same concentration, FIG. 1. As for the experimental part:
H358 cells were plated on to a 24-well plate at 2×10^5 cells/well. Serially diluted compounds including AMG510, MRTX849, compound 142 and compound 171 were added. After overnight incubation, cells were lysed, and proteins were quantified and subjected to gel electrophoresis.

Series [3] can be described thus: Pharmacokinetic evaluation in mice. Format: in vivo, male ICR mice. The note with it: for Cmax: read-out: Cmax; for Tmax: read-out: Tmax. As for the experimental part: The compounds were administered by intravenous injection at a dose of 2 mg/kg and oral gavage at a dose of 10 mg/kg (0.5% CMC-Na suspension). 15 male ICR mice were selected for each group, and each mouse was subjected to blood collection at 3 discrete time points, with 3 mice per time point. The time points of sampling were as follows: before the administration, and at 5 min, 15 min, 30 min, 1 h, 3 h, 5 h, 8 h, 12 h and 24 h after the administration. 80 μL of blood was collected from the eye sockets or the hearts of the mice at each of the time points after the administration. All whole blood samples were collected in tubes containing EDTA K2 and centrifuged (1500-1600 rmp) at 4° C. for 10 min to isolate plasma, which was then stored in a refrigerator at −90 to −60° C. for sample analysis. The compound concentration in the plasma was determined by liquid chromatography-tandem mass spectrometry, and the corresponding pharmacokinetic parameters were obtained according to a plasma concentration-time curve.

[4] abbreviates: male, ICR, mouse, plasma, iv, 2 mg/kg.
The mark [5] stands for this setting: male, ICR, mouse, plasma, po, 10 mg/kg, 0.5% CMC-Na suspension.

Where two headings read alike, the source gives them in different places.

In the case of `C=CC(=O)N1CC2(CCN(c3nc(N4CC(N5CCC5)C4)nc4c(OCC(F)(F)F)c(-c5c(C)ccc6[nH]ncc56)c(C5CC5)cc34)CC2)C1` [Compound 142], in series [1], the “Anti-tumor effect (regression)” value came to 35% regression. Moreover, the inhibition at 1 µM in the series with pERK level in H358 cells was greater than 90%. For the same compound, the IC50 in the series with H358 cells (96-well ultra-low attachment plate, Cell Titer Glow) was less than 300 nM. The IC50 with H358 cells was 2.5 nM. In addition, in series [2], the “inhibition of the phosphorylated ERK (pERK) level in cells compared with AMG510 and MRTX849” value is given as “stronger inhibition”. Also, in series [3] (setting [4]), the AUC(0-t) came to 52000 ng·h/mL, the clearance is 0.642 mL/min/kg, the half-life was 3.31 h and the Cmax is 13100 ng/mL. Moreover, the Tmax in series [3] (setting [4]) stood at 0.083 h. Also, the Vd in series [3] (male, ICR, mouse, plasma, iv, 2 mg/kg, read-out: Vss) turned out to be 0.187 L/kg. Further, in series [3] (setting [5]), the AUC(0-t) was found to be 46000 ng·h/mL, the half-life was 3.89 h, the maximum concentration (Cmax) was determined as 6730 ng/mL and the time of peak concentration (Tmax) worked out at 2 h. Moreover, the F in series [3] (po 10 mg/kg vs iv 2 mg/kg) is 17.7%.
